Data published in ChEMBL document CHEMBL4808179 (Bioorg Med Chem Lett, 2021).
Values after ≈ are worked out from the molar mass of the structure shown.

Legend:
[1] = tested on: Acinetobacter baumannii; assay: Antibacterial activity against Acinetobacter baumannii assessed as bacterial growth inhibition; type: functional
[2] = tested on: Escherichia coli; assay: Antibacterial activity against Escherichia coli AB1157 assessed as bacterial growth inhibition; type: functional
[3] = tested on: Enterococcus faecium; assay: Antibacterial activity against vancomycin resistant Enterococcus faecium Van M HS-08267 assessed as inhibition of bacterial growth; type: functional
[4] = tested on: Staphylococcus aureus; assay: Antibacterial activity against methicillin-resistant Staphylococcus aureus USA300 assessed as bacterial growth inhibition; type: functional
[5] = tested on: Enterococcus faecium; assay: Antibacterial activity against vancomycin resistant Enterococcus faecium Van A HS-06188 assessed as inhibition of bacterial growth; type: functional
[6] = tested on: Staphylococcus aureus; assay: Antibacterial activity against methicillin-susceptible Staphylococcus aureus Newman assessed as bacterial growth inhibition; type: functional
[7] = tested on: Staphylococcus aureus; assay: Antibacterial activity against vancomycin-intermediate Staphylococcus aureus Mu50 assessed as bacterial growth inhibition; type: functional
[8] = tested on: Enterococcus faecium; assay: Antibacterial activity against vancomycin resistant Enterococcus faecium Van B V(R) assessed as inhibition of bacterial growth; type: functional
[9] = tested on: Enterococcus faecium; assay: Antibacterial activity against vancomycin resistant Enterococcus faecium Van M HS-0847 assessed as inhibition of bacterial growth; type: functional
[10] = tested on: Staphylococcus aureus; assay: Antibacterial activity against methicillin-resistant Staphylococcus aureus HS-663 assessed as bacterial growth inhibition; type: functional
[11] = tested on: L02; assay: Cytotoxicity against human L02 cells assessed as reduction in cell viability >= 12.5 uM; type: cell-based
[12] = tested on: Enterococcus faecium; assay: Antibacterial activity against vancomycin resistant Enterococcus faecium Van A HS-0649 assessed as inhibition of bacterial growth; type: functional
[13] = tested on: Enterococcus faecium; assay: Potency index, ratio of Vancomycin MIC to test compound MIC for antibacterial activity against vancomycin resistant Enterococcus faecium Van M HS-08267 assessed as inhibition of bacterial growth; type: functional
[14] = tested on: Enterococcus faecium; assay: Potency index, ratio of Vancomycin MIC to test compound MIC for antibacterial activity against vancomycin resistant Enterococcus faecium Van M HS-0847 assessed as inhibition of bacterial growth; type: functional
[15] = tested on: Staphylococcus aureus; assay: Potency index, ratio of Vancomycin MIC to test compound MIC for antibacterial activity against vancomycin-intermediate Staphylococcus aureus Mu50 assessed as bacterial growth inhibition; type: functional
[16] = tested on: Staphylococcus aureus; assay: Potency index, ratio of Vancomycin MIC to test compound MIC for antibacterial activity against methicillin-susceptible Staphylococcus aureus Newman assessed as bacterial growth inhibition; type: functional
[17] = tested on: Enterococcus faecium; assay: Potency index, ratio of Vancomycin MIC to test compound MIC for antibacterial activity against vancomycin resistant Enterococcus faecium Van B V(R) assessed as inhibition of bacterial growth; type: functional
[18] = tested on: Enterococcus faecium; assay: Potency index, ratio of Vancomycin MIC to test compound MIC for antibacterial activity against vancomycin resistant Enterococcus faecium Van A HS-06188 assessed as inhibition of bacterial growth; type: functional

SMILES	MIC [1] [µg/mL]	MIC [2] [µg/mL]	MIC [3] [µg/mL]	MIC [4] [µg/mL]	MIC [5] [µg/mL]	MIC [6] [µg/mL]	MIC [7] [µg/mL]	MIC [8] [µg/mL]	MIC [9] [µg/mL]	MIC [10] [µg/mL]	Activity [11]	MIC [12] [µg/mL]	Ratio [13]	Ratio [14]	Ratio [15]	Ratio [16]	Ratio [17]	Ratio [18]
CN[C@H](CC(C)C)C(=O)N[C@H]1C(=O)N[C@@H](CC(N)=O)C(=O)N[C@H]2C(=O)N[C@H]3C(=O)N[C@H](C(=O)N[C@H](C(=O)N[C@@H](CS)C(=O)N[C@@H](CCCNC(=N)N)C(=O)N[C@@H](CCCCN)C(=O)N[C@H](C(=O)N[C@@H](CCCNC(=N)N)C(=O)NCC(=O)N4CCC[C@H]4C(=O)N4CCC[C@H]4C(=O)O)C(C)C)c4cc(O)cc(O)c4-c4cc3ccc4O)[C@H](O)c3ccc(c(Cl)c3)Oc3cc2cc(c3O[C@@H]2O[C@H](CO)[C@@H](O)[C@H](O)[C@H]2O[C@H]2C[C@](C)(N)[C@H](O)[C@H](C)O2)Oc2ccc(cc2Cl)[C@H]1O	> 128	> 128	32 (≈ 13.7 µM)	16 (≈ 6.83 µM)	16 (≈ 6.83 µM)	32 (≈ 13.7 µM)	64 (≈ 27.3 µM)	16 (≈ 6.83 µM)	32 (≈ 13.7 µM)	16 (≈ 6.83 µM)	–	–	–	–	–	–	–	–
CN[C@H](CC(C)C)C(=O)N[C@H]1C(=O)N[C@@H](CC(N)=O)C(=O)N[C@H]2C(=O)N[C@H]3C(=O)N[C@H](C(=O)N[C@H](C(=O)N[C@@H](CCCNC(=N)N)C(=O)O)c4cc(O)cc(O)c4-c4cc3ccc4O)[C@H](O)c3ccc(c(Cl)c3)Oc3cc2cc(c3O[C@@H]2O[C@H](CO)[C@@H](O)[C@H](O)[C@H]2O[C@H]2C[C@](C)(N)[C@H](O)[C@H](C)O2)Oc2ccc(cc2Cl)[C@H]1O	> 128	> 128	128 (≈ 79.7 µM)	4 (≈ 2.49 µM)	128 (≈ 79.7 µM)	8 (≈ 4.98 µM)	64 (≈ 39.9 µM)	64 (≈ 39.9 µM)	128 (≈ 79.7 µM)	0.5 (≈ 0.311 µM)	Toxic	> 128	–	–	–	–	–	–
CN[C@H](CC(C)C)C(=O)N[C@H]1C(=O)N[C@@H](CC(N)=O)C(=O)N[C@H]2C(=O)N[C@H]3C(=O)N[C@H](C(=O)N[C@H](C(=O)N/N=C/c4ccc(-c5ccccc5)cc4)c4cc(O)cc(O)c4-c4cc3ccc4O)[C@H](O)c3ccc(c(Cl)c3)Oc3cc2cc(c3O[C@@H]2O[C@H](CO)[C@@H](O)[C@H](O)[C@H]2O[C@H]2C[C@](C)(N)[C@H](O)[C@H](C)O2)Oc2ccc(cc2Cl)[C@H]1O	> 128	128 (≈ 78.6 µM)	2 (≈ 1.23 µM)	0.25 (≈ 0.154 µM)	4 (≈ 2.46 µM)	≤ 0.0625	2 (≈ 1.23 µM)	2 (≈ 1.23 µM)	4 (≈ 2.46 µM)	0.0625 (≈ 0.0384 µM)	–	4 (≈ 2.46 µM)	8	8	2	32	8	8
CN[C@H](CC(C)C)C(=O)N[C@H]1C(=O)N[C@@H](CC(N)=O)C(=O)N[C@H]2C(=O)N[C@H]3C(=O)N[C@H](C(=O)N[C@H](C(=O)NNCc4ccc(-c5ccc(C(F)(F)F)cc5)cc4)c4cc(O)cc(O)c4-c4cc3ccc4O)[C@H](O)c3ccc(c(Cl)c3)Oc3cc2cc(c3O[C@@H]2O[C@H](CO)[C@@H](O)[C@H](O)[C@H]2O[C@H]2C[C@](C)(N)[C@H](O)[C@H](C)O2)Oc2ccc(cc2Cl)[C@H]1O	64 (≈ 37.7 µM)	> 128	2 (≈ 1.18 µM)	0.5 (≈ 0.295 µM)	8 (≈ 4.71 µM)	1 (≈ 0.589 µM)	2 (≈ 1.18 µM)	4 (≈ 2.36 µM)	4 (≈ 2.36 µM)	0.0625 (≈ 0.0368 µM)	–	8 (≈ 4.71 µM)	8	8	–	–	8	8
CN[C@H](CC(C)C)C(=O)N[C@H]1C(=O)N[C@@H](CC(N)=O)C(=O)N[C@H]2C(=O)N[C@H]3C(=O)N[C@H](C(=O)N[C@H](C(=O)NNCc4ccccc4)c4cc(O)cc(O)c4-c4cc3ccc4O)[C@H](O)c3ccc(c(Cl)c3)Oc3cc2cc(c3O[C@@H]2O[C@H](CO)[C@@H](O)[C@H](O)[C@H]2O[C@H]2C[C@](C)(N)[C@H](O)[C@H](C)O2)Oc2ccc(cc2Cl)[C@H]1O	> 128	> 128	32 (≈ 20.6 µM)	1 (≈ 0.644 µM)	64 (≈ 41.2 µM)	1 (≈ 0.644 µM)	4 (≈ 2.57 µM)	128 (≈ 82.4 µM)	64 (≈ 41.2 µM)	0.25 (≈ 0.161 µM)	–	128 (≈ 82.4 µM)	–	–	–	–	–	–
CN[C@H](CC(C)C)C(=O)N[C@H]1C(=O)N[C@@H](CC(N)=O)C(=O)N[C@H]2C(=O)N[C@H]3C(=O)N[C@H](C(=O)N[C@H](C(=O)N/N=C/c4ccc(-c5ccc(C(F)(F)F)cc5)cc4)c4cc(O)cc(O)c4-c4cc3ccc4O)[C@H](O)c3ccc(c(Cl)c3)Oc3cc2cc(c3O[C@@H]2O[C@H](CO)[C@@H](O)[C@H](O)[C@H]2O[C@H]2C[C@](C)(N)[C@H](O)[C@H](C)O2)Oc2ccc(cc2Cl)[C@H]1O	> 128	> 128	2 (≈ 1.18 µM)	0.5 (≈ 0.295 µM)	4 (≈ 2.36 µM)	1 (≈ 0.59 µM)	2 (≈ 1.18 µM)	1 (≈ 0.59 µM)	4 (≈ 2.36 µM)	0.0625 (≈ 0.0369 µM)	–	4 (≈ 2.36 µM)	8	8	–	–	8	8
CN[C@H](CC(C)C)C(=O)N[C@H]1C(=O)N[C@@H](CC(N)=O)C(=O)N[C@H]2C(=O)N[C@H]3C(=O)N[C@H](C(=O)N[C@H](C(=O)N/N=C/c4ccccc4)c4cc(O)cc(O)c4-c4cc3ccc4O)[C@H](O)c3ccc(c(Cl)c3)Oc3cc2cc(c3O[C@@H]2O[C@H](CO)[C@@H](O)[C@H](O)[C@H]2O[C@H]2C[C@](C)(N)[C@H](O)[C@H](C)O2)Oc2ccc(cc2Cl)[C@H]1O	> 128	> 128	64 (≈ 41.3 µM)	2 (≈ 1.29 µM)	128 (≈ 82.5 µM)	2 (≈ 1.29 µM)	16 (≈ 10.3 µM)	128 (≈ 82.5 µM)	64 (≈ 41.3 µM)	0.5 (≈ 0.322 µM)	Toxic	128 (≈ 82.5 µM)	–	–	–	–	–	–
CN[C@H](CC(C)C)C(=O)N[C@H]1C(=O)N[C@@H](CC(N)=O)C(=O)N[C@H]2C(=O)N[C@H]3C(=O)N[C@H](C(=O)N[C@H](C(=O)N[C@@H](CS)C(=O)O)c4cc(O)cc(O)c4-c4cc3ccc4O)[C@H](O)c3ccc(c(Cl)c3)Oc3cc2cc(c3O[C@@H]2O[C@H](CO)[C@@H](O)[C@H](O)[C@H]2O[C@H]2C[C@](C)(N)[C@H](O)[C@H](C)O2)Oc2ccc(cc2Cl)[C@H]1O	> 128	> 128	8 (≈ 5.15 µM)	32 (≈ 20.6 µM)	16 (≈ 10.3 µM)	64 (≈ 41.2 µM)	128 (≈ 82.5 µM)	8 (≈ 5.15 µM)	8 (≈ 5.15 µM)	2 (≈ 1.29 µM)	Toxic	> 128	8	8	–	–	8	8
CC[C@H](C)[C@H](NC(=O)[C@H](CCCCN)NC(=O)[C@@H](NC(=O)[C@H](CC(N)=O)NC(=O)[C@H](CS)NC(=O)[C@H]1NC(=O)[C@H]2NC(=O)[C@H](NC(=O)[C@@H]3NC(=O)[C@H](CC(N)=O)NC(=O)[C@H](NC(=O)[C@@H](CC(C)C)NC)[C@H](O)c4ccc(c(Cl)c4)Oc4cc3cc(c4O[C@@H]3O[C@H](CO)[C@@H](O)[C@H](O)[C@H]3O[C@H]3C[C@](C)(N)[C@H](O)[C@H](C)O3)Oc3ccc(cc3Cl)[C@H]2O)c2ccc(O)c(c2)-c2c(O)cc(O)cc21)[C@@H](C)CC)C(=O)N[C@@H](CO)C(=O)NCC(=O)N[C@@H](CCCCN)C(=O)N[C@@H](Cc1c[nH]c2ccccc12)C(=O)N[C@@H](CCCCN)C(=O)N[C@@H](C)C(=O)N[C@@H](CCC(N)=O)C(=O)N[C@@H](CCCCN)C(=O)N[C@@H](CCCNC(=N)N)C(=O)N[C@@H](Cc1ccccc1)C(=O)N[C@@H](CC(C)C)C(=O)O	> 128	> 128	32 (≈ 9.55 µM)	32 (≈ 9.55 µM)	64 (≈ 19.1 µM)	32 (≈ 9.55 µM)	32 (≈ 9.55 µM)	32 (≈ 9.55 µM)	32 (≈ 9.55 µM)	16 (≈ 4.77 µM)	–	–	–	–	–	–	–	–
CN[C@H](CC(C)C)C(=O)N[C@H]1C(=O)N[C@@H](CC(N)=O)C(=O)N[C@H]2C(=O)N[C@H]3C(=O)N[C@H](C(=O)N[C@H](C(=O)N[C@@H](CCCNC(=N)N)C(N)=O)c4cc(O)cc(O)c4-c4cc3ccc4O)[C@H](O)c3ccc(c(Cl)c3)Oc3cc2cc(c3O[C@@H]2O[C@H](CO)[C@@H](O)[C@H](O)[C@H]2O[C@H]2C[C@](C)(N)[C@H](O)[C@H](C)O2)Oc2ccc(cc2Cl)[C@H]1O	> 128	32 (≈ 19.9 µM)	64 (≈ 39.9 µM)	–	64 (≈ 39.9 µM)	2 (≈ 1.25 µM)	2 (≈ 1.25 µM)	64 (≈ 39.9 µM)	64 (≈ 39.9 µM)	0.25 (≈ 0.156 µM)	Toxic	64 (≈ 39.9 µM)	–	–	–	–	–	–
CN[C@H](CC(C)C)C(=O)N[C@H]1C(=O)N[C@@H](CC(N)=O)C(=O)N[C@H]2C(=O)N[C@H]3C(=O)N[C@H](C(=O)N[C@H](C(=O)O)c4cc(O)cc(O)c4-c4cc3ccc4O)[C@H](O)c3ccc(c(Cl)c3)Oc3cc2cc(c3O[C@@H]2O[C@H](CO)[C@@H](O)[C@H](O)[C@H]2O[C@H]2C[C@](C)(N)[C@H](O)[C@H](C)O2)Oc2ccc(cc2Cl)[C@H]1O [VANCOMYCIN]	–	–	–	–	–	–	8 (≈ 5.52 µM)	–	64 (≈ 44.2 µM)	0.25 (≈ 0.173 µM)	–	–	–	–	–	–	–	–
